Values joined by “and” are separate entries in the source; they are usually repeats but may differ in a detail not shown here. Equal values may be shown once. Toxic doses and inconclusive results are not listed.

The results in this text go back to PubChem BioAssay AID330 (DTP/NCI, 2004).

This assay concerns P388 leukemia ip, CD2F1 mice, survival T/C. Nature of the assay: NCI In Vivo Anticancer Drug Screen. Data for tumor model P388 Leukemia (intraperitoneal) in CD2F1 (CDF1) mice. The settings on record: endpoint: median survival time, higher = longer survival. A digest of the protocol: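 Mice carrying the transplanted tumor received test compound or vehicle. Survival was recorded in each group, and the value is the treated-group measurement divided by that of the vehicle-treated control group.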

The mark [1] stands for this setting: dose: 100.0 mg/kg/injection, schedule: Q01DX005 (ip), vehicle: Klucel (hydroxypropylcellulose) (HPC).
Where [2] appears, read: dose: 200.0 mg/kg/injection, schedule: Q01DX005 (ip), vehicle: Klucel (hydroxypropylcellulose) (HPC).
Setting [3] is: dose: 50.0 mg/kg/injection, schedule: Q01DX009 (ip), vehicle: saline.
The mark [4] stands for this setting: dose: 100.0 mg/kg/injection, schedule: Q01DX009 (ip), vehicle: saline.
Where [5] appears, read: dose: 12.5 mg/kg/injection, schedule: Q04DX003 (ip), vehicle: distilled water + Tween-80.
[6] abbreviates: dose: 25.0 mg/kg/injection, schedule: Q04DX003 (ip), vehicle: distilled water + Tween-80.
[7] abbreviates: dose: 50.0 mg/kg/injection, schedule: Q01DX005 (ip), vehicle: saline with Tween-80.
Where [8] appears, read: dose: 100.0 mg/kg/injection, schedule: Q01DX005 (ip), vehicle: saline with Tween-80.
Setting [9] is: dose: 200.0 mg/kg/injection, schedule: Q01DX005 (ip), vehicle: saline with Tween-80.
The mark [10] stands for this setting: dose: 25.0 mg/kg/injection, schedule: Q01DX005 (ip), vehicle: Klucel (hydroxypropylcellulose) (HPC).
Where [11] appears, read: dose: 50.0 mg/kg/injection, schedule: Q01DX005 (ip), vehicle: Klucel (hydroxypropylcellulose) (HPC).
[12] abbreviates: dose: 100.0 mg/kg/injection, schedule: Q01DX009 (ip), vehicle: Klucel (hydroxypropylcellulose) (HPC).
Where [13] appears, read: dose: 200.0 mg/kg/injection, schedule: Q01DX009 (ip), vehicle: Klucel (hydroxypropylcellulose) (HPC).

Turning to `O=C(/C=C/c1ccccc1)OCC12OC1C(O)C1C=COC(OC3OC(CO)C(O)C(O)C3O)C12` (stereo not given), the T/C by setting is: (dose: 4.38 mg/kg/injection, schedule: Q01DX005 (ip), vehicle: Klucel (hydroxypropylcellulose) (HPC)) 96 % of control; (dose: 8.75 mg/kg/injection, schedule: Q01DX005 (ip), vehicle: Klucel (hydroxypropylcellulose) (HPC)) 94 % of control; (dose: 17.5 mg/kg/injection, schedule: Q01DX005 (ip), vehicle: Klucel (hydroxypropylcellulose) (HPC)) 97 % of control; (dose: 35.0 mg/kg/injection, schedule: Q01DX005 (ip), vehicle: Klucel (hydroxypropylcellulose) (HPC)) 97 % of control; (dose: 70.0 mg/kg/injection, schedule: Q01DX005 (ip), vehicle: Klucel (hydroxypropylcellulose) (HPC)) 97 % of control; under setting [1], 95 % of control. Further, the T/C under setting [2] is 103 % of control.
In the case of `Cn1nnnc1SCC1=C(C(=O)O)N2C(=O)C(NC(=O)C(OC=O)c3ccccc3)C2SC1` (stereo not given), the T/C runs as follows: under setting [3], 100 % of control; under setting [4], 97 % of control; (dose: 200.0 mg/kg/injection, schedule: Q01DX009 (ip), vehicle: saline) 104 % of control.
Turning to `C=C(C(N)=O)C(N)C(=O)O` (stereo not given), under “dose: 60.0 mg/kg/injection, schedule: Q01DX005 (ip), vehicle: saline with Tween-80”, the T/C was 120 % of control.
Turning to `COC1/C=C\OC2(C)Oc3c(C)c(O)c4c(c3C2=O)C(=O)C=C(NC(=O)C(C)=C/C=C\C(C)C(=O)C(C)C2OC(C)(C)OC(C1C)C2C)C4=O` (stereo not given), the T/C (dose: 6.25 mg/kg/injection, schedule: Q04DX003 (ip), vehicle: other) was 100 % of control; the T/C under setting [5] was 106 % of control and 110 % of control; the T/C (dose: 12.5 mg/kg/injection, schedule: Q04DX003 (ip), vehicle: other) was 107 % of control; the T/C under setting [6] was 101 % of control and 121 % of control; the T/C (dose: 25.0 mg/kg/injection, schedule: Q04DX003 (ip), vehicle: other) was 156 % of control; the T/C (dose: 50.0 mg/kg/injection, schedule: Q04DX003 (ip), vehicle: distilled water + Tween-80) was 91 % of control and 95 % of control. The T/C is, setting by setting: (dose: 50.0 mg/kg/injection, schedule: Q04DX003 (ip), vehicle: other) 108 % of control; (dose: 100.0 mg/kg/injection, schedule: Q04DX003 (ip), vehicle: distilled water + Tween-80) 103 % of control and 97 % of control; (dose: 100.0 mg/kg/injection, schedule: Q04DX003 (ip), vehicle: other) 118 % of control; (dose: 200.0 mg/kg/injection, schedule: Q04DX003 (ip), vehicle: distilled water + Tween-80) 113 % of control and 117 % of control.
With `CNC(=O)OCc1ccc(NCCN(C)C)c2c(=O)c3cc(OC(=O)NC)ccc3oc12`, the T/C runs as follows: (dose: 3.13 mg/kg/injection, schedule: Q01DX005 (ip), vehicle: Klucel (hydroxypropylcellulose) (HPC)) 118 % of control; (dose: 6.25 mg/kg/injection, schedule: Q01DX005 (ip), vehicle: Klucel (hydroxypropylcellulose) (HPC)) 123 % of control.
Regarding `COc1ccc([C@@H]2c3cc4c(cc3C[C@H]3COC(=O)[C@@H]32)OCO4)cc1OC`, the T/C was 108 % of control (dose: 25.0 mg/kg/injection, schedule: Q04DX002 (ip), vehicle: Klucel (hydroxypropylcellulose) (HPC)) and 124 % of control (dose: 100.0 mg/kg/injection, schedule: Q04DX002 (ip), vehicle: Klucel (hydroxypropylcellulose) (HPC)).
Take `O=c1c(Cc2ccccc2)c([O-])[n+](Cc2ccccc2)c(-c2ccccc2)n1-c1ccccc1`: the T/C was 98 % of control (dose: 60.0 mg/kg/injection, schedule: Q01DX005 (ip), vehicle: Klucel (hydroxypropylcellulose) (HPC)); 91 % of control (dose: 120.0 mg/kg/injection, schedule: Q01DX005 (ip), vehicle: Klucel (hydroxypropylcellulose) (HPC)); 90 % of control (dose: 240.0 mg/kg/injection, schedule: Q01DX005 (ip), vehicle: Klucel (hydroxypropylcellulose) (HPC)).
Regarding `CN(C)CCCn1c2ccccc2c2cnccc21`, the T/C (dose: 25.0 mg/kg/injection, schedule: Q01DX009 (ip), vehicle: saline) was 100 % of control; the T/C (dose: 25.0 mg/kg/injection, schedule: Q04DX003 (ip), vehicle: saline) is 100 % of control; the T/C under setting [3] is 100 % of control; the T/C (dose: 50.0 mg/kg/injection, schedule: Q04DX003 (ip), vehicle: saline) is 95 % of control; the T/C under setting [4] is 109 % of control; the T/C (dose: 100.0 mg/kg/injection, schedule: Q04DX003 (ip), vehicle: saline) is 95 % of control.
With `CSc1nc(SC)c2cnn(Cc3ccccc3)c2n1`, the T/C under setting [7] is 96 % of control, the T/C under setting [8] was 95 % of control and the T/C under setting [9] is 93 % of control.
As for `COc1cccc2c1C(=O)c1c(O)c3c(c(O)c1C2=O)C[C@@](O)(C(C)=O)C[C@@H]3OC1CC(N2CCCCC2)C(O)C(C)O1` (stereo not given in full), the T/C was 111 % of control (dose: 1.56 mg/kg/injection, schedule: Q04DX003 (ip), vehicle: water); 191 % of control (dose: 6.25 mg/kg/injection, schedule: Q04DX003 (ip), vehicle: distilled water + Tween-80); 163 % of control (dose: 6.25 mg/kg/injection, schedule: Q04DX003 (ip), vehicle: water); 106 % of control under setting [5]; 111 % of control (dose: 12.5 mg/kg/injection, schedule: Q04DX003 (ip), vehicle: water); 99 % of control under setting [6].
Regarding `O=[N+]([O-])C1=CC(=N/Br)/C=CC/1=N/Br`, the T/C under setting [7] is 94 % of control, the T/C under setting [8] is 100 % of control and the T/C under setting [9] is 118 % of control.
With `Nc1ccc(N=Nc2cccc3c(N=Nc4ccc(N)nc4N)cccc23)c(N)n1`, the T/C runs as follows: under setting [10], 97 % of control; under setting [11], 100 % of control; under setting [1], 98 % of control; under setting [2], 93 % of control.
Turning to `Nc1ccccc1.O=C([CH-]C(=O)C(F)(F)F)c1ccccc1.O=C([CH-]C(=O)C(F)(F)F)c1ccccc1.O=C([CH-]C(=O)C(F)(F)F)c1ccccc1.O=C([CH-]C(=O)C(F)(F)F)c1ccccc1.[Eu+3]`, the T/C was 100 % of control under setting [12] and 103 % of control under setting [13].
With `C[n+]1c2ccccc2c(N)c2ccccc21`, under “dose: 30.0 mg/kg/injection, schedule: Q04DX002 (ip), vehicle: saline with Tween-80”, the T/C is 117 % of control.
With `NNS(=O)(=O)c1cc(Cl)c(Cl)cc1Cl`, the T/C (dose: 50.0 mg/kg/injection, schedule: Q01DX009 (ip), vehicle: Klucel (hydroxypropylcellulose) (HPC)) is 94 % of control; the T/C under setting [12] was 98 % of control; the T/C under setting [13] is 95 % of control.
On to `COC(=O)C(Cc1cc(OC)c(OC)c(OC)c1I)C(=O)OC`, for which the T/C (dose: 100.0 mg/kg/injection, schedule: Q01DX001 (ip), vehicle: saline with Tween-80) is 102 % of control; the T/C (dose: 200.0 mg/kg/injection, schedule: Q01DX001 (ip), vehicle: saline with Tween-80) was 100 % of control; the T/C (dose: 400.0 mg/kg/injection, schedule: Q01DX001 (ip), vehicle: saline with Tween-80) was 103 % of control.
On to `CCNc1nc(NC(C)C)nc(-c2ccncc2)n1`, for which the T/C reads like this: (dose: 12.5 mg/kg/injection, schedule: Q01DX005 (ip), vehicle: Klucel (hydroxypropylcellulose) (HPC)) 108 % of control; under setting [10], 96 % of control; under setting [11], 101 % of control; under setting [1], 108 % of control.
For `Cc1noc(C)c1C1(Br)C(Br)CCCC1Br` (stereo not given), the T/C reads like this: (dose: 100.0 mg/kg/injection, schedule: Q04DX002 (ip), vehicle: saline with Tween-80) 105 % of control; (dose: 200.0 mg/kg/injection, schedule: Q04DX002 (ip), vehicle: saline with Tween-80) 104 % of control; (dose: 400.0 mg/kg/injection, schedule: Q04DX002 (ip), vehicle: saline with Tween-80) 114 % of control.
Take `Clc1ccc(N2C(c3ccccc3)=N[C@@H](N3CCOCC3)[C@@H]2N2CCOCC2)cc1`: the T/C under setting [11] was 100 % of control, the T/C under setting [1] was 100 % of control and the T/C under setting [2] is 105 % of control.
As for `Cc1cc(NC(=O)C(=O)CC(=O)c2cccnc2)no1`, the T/C by setting is: under setting [7], 102 % of control; under setting [8], 101 % of control; under setting [9], 101 % of control.
Regarding `CCOC(=O)CC(C#N)(C#N)CC(=O)OCC`, the T/C is 101 % of control under setting [7], 107 % of control under setting [8] and 106 % of control under setting [9].
